According to patent publication US20180353462A1, “[…] AGENTS […] FLAVONOID DERIVATIVES TARGETING KINASES, SIRTUINS AND ONCOGENIC AGENTS FOR THE TREATMENT OF CANCERS” (priority 2015, published 2018):

Assays:
[1] = target: T1, MEK5 (Homo sapiens, UniProt Q13163); assay: Kinase competition binding assay, MEK5; conditions: Table 1 kinase panel
T1 construct: made in house
T1 sequence (Q13163 1-448): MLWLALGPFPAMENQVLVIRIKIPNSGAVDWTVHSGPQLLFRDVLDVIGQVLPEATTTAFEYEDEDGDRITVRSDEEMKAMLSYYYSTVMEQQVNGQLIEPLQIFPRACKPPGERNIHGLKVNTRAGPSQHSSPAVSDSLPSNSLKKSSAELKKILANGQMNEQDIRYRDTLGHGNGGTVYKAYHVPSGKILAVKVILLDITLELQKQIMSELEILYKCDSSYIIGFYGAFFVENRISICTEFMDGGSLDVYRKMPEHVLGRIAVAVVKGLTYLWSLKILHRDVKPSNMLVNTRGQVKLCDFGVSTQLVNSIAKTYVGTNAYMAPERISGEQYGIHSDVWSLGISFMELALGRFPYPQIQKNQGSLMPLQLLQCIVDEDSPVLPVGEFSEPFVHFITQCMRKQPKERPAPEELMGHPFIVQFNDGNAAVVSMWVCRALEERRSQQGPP
Description: (§1) Cannabis flavonoids and their analogs were subjected to kinase inhibition assay. The compounds were first screened at a single concentration of 10 μM in the primary assay. […]. To determine the kd or IC50 values, competition binding assays were established, authenticated and executed as described previously. Fabian et al., “A Small Molecule-Kinase Interaction Map For Clinical Kinase Inhibitors.”, Nat Biotechnol, 23(3):329-36, Epub (2005). See also, Karaman et al., “A Quantitative Analysis Of Kinase Inhibitor Selectivity”, Nat. Biotechnol. […] For most assays, kinases were fused to T7 phage strains (Fabian, supra) and for the other assays, kinases were produced in HEK-293 cells after which they were tagged with DNA for quantitative PCR detection. In general, full-length constructs were used for small, single domain kinases, and catalytic domain constructs for large multi-domain kinases. The binding assays utilized streptavidin-coated magnetic beads treated with biotinylated small molecule ligands for 30 minutes at room temperature which generated affinity resins for the kinase assays. The liganded beads were blocked with excess biotin and washed with blocking buffer (SeaBlock (Pierce), 1% BSA, 0.05% Tween 20, 1 mM DTT) to remove unbound ligand and to reduce non-specific phage binding. […] Test compounds were prepared as 40× stocks in 100% DMSO and diluted directly into the assay (Final DMSO concentration=2.5%). All reactions were performed in polypropylene 384-well plates in a final volume of 0.04 ml. […] The beads were then re-suspended in elution buffer (1×PBS, 0.05% Tween 20, 0.5 μM non-biotinylated affinity ligand) and incubated at room temperature with shaking for 30 minutes. The kinase concentration in the eluates was measured by quantitative PCR. An illustration of the kinase interaction process is presented below. Kd/IC50 values were determined using a standard dose response curve using the hill equation. Curves were fitted using a non-linear least square fit with the Levenberg-Marquardt algorithm.
(§2) The compound(s) were screened at 10 μM and results for primary screen binding interactions are reported as ‘% Ctrl’, where lower numbers indicate stronger hits in the matrix.

[2] = target: T2, JAK3 (Homo sapiens, UniProt P52333); assay: Kinase competition binding assay, JAK3; conditions: Table 1 kinase panel
T2 construct: made in house
T2 sequence (P52333 1-1124): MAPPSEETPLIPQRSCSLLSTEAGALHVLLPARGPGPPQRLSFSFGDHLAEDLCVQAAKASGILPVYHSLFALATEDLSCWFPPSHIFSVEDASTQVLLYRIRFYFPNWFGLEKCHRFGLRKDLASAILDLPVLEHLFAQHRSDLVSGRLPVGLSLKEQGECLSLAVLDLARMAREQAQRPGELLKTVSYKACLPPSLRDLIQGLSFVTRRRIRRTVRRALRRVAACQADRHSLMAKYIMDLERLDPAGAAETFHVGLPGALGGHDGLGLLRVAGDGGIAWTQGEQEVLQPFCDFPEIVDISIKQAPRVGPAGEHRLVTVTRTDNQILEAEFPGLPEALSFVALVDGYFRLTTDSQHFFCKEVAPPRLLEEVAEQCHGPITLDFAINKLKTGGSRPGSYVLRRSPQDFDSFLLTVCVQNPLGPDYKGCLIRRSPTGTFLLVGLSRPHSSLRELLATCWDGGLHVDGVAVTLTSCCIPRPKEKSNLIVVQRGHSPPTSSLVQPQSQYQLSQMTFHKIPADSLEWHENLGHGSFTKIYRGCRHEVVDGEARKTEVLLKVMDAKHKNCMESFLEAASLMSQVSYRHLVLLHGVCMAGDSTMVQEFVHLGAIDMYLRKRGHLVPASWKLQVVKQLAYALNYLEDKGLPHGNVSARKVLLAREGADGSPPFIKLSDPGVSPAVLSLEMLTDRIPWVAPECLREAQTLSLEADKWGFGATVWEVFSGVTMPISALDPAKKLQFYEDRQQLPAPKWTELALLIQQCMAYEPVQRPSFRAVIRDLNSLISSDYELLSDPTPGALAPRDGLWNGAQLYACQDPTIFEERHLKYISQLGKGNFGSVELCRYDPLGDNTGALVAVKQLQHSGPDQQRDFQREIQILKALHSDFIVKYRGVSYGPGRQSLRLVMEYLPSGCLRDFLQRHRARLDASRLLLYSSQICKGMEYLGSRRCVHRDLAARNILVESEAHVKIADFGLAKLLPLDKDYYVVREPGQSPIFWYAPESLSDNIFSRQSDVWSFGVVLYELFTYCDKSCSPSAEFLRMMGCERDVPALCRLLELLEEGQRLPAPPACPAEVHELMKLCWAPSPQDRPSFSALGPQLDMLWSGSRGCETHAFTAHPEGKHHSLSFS
Description: as §1, §2

[3] = test system: U87 (Glioma); assay: WST-1 anticancer cell proliferation assay, U87; format: cell-based; conditions: 72 hours
Description: Bioactivity of the above-described compounds has been verified by an anticancer cell proliferation assay using the WST-1 (4-[3-(4-iodophenyl)-2-(4-nitrophenyl)-2H-5-tetrazolio]-1, 3-benzene disulfonate) colorimetric assay by Roche Life Sciences®. Anticancer activity was tested against several standard cancer cell lines including brain, breast, Kaposi sarcoma, leukemia, lung, melanoma, tenosynovial giant cell tumor, ovarian, pancreatic, colon and prostate cancer. Cells were trypsinized and plated into 96 well plates in 50 μl of media and incubated overnight. The next day approximately 18 hours after plating, 50 μl of media containing the required flavonoid-based pharmaceutical composition was added per well. Cells were plated at a density so that 72 hours post drug addition, the cells will be in log phase (500)-2000 cells/well). The compounds and extracts were solubilized in Dimethyl sulfoxide (DMSO). The cells are allowed to proliferate for 72 hours 37° C. in humidified atmosphere of 5% CO2. The experiment is terminated using WST-1 (Roche®) 10 μl per well and absorbance is read at 450 nm %690 nm. The effect of drugs on growth is assessed as percent of cell viability. The IC50 values were determined from the extract dose versus control growth curves using Graphpad Prism® software. All experiments were carried out in duplicate and the mean results determined.

Structure (SMILES)	IC50 [1] [nM]	IC50 [2] [nM]	IC50 [3] [µM]
COc1cc(-c2cc(=O)c3c(O)c(C/C=C(\C)CCC=C(C)C)c(O)cc3o2)ccc1O [FBL-03A]	140	> 20000	34
COc1cc(-c2cc(=O)c3c(O)c(CC=C(C)C)c(O)cc3o2)ccc1O [FBL-03B]	> 1000	> 1000	6.2
COc1cc(-c2cc(=O)c3c(O)cc(O)c(C/C=C(\C)CCC=C(C)C)c3o2)ccc1O [FBL-03C]	84	780	12.5
COc1ccc(-c2cc(=O)c3c(O)c(C/C=C(\C)CCC=C(C)C)c(O)cc3o2)cc1OC [FBL-03D]	> 30000	> 30000	–
COc1cc(-c2cc(=O)c3c(O)cc(O)c(CC=C(C)C)c3o2)ccc1O [FBL-03G]	> 1000	> 20000	5.46
